Measurements: US20230127326A1, “C3-SUBSTITUTED 1H-PYRAZOLO[4,3-d]PYRIMIDINE COMPOUNDS AS TOLL-LIKE RECEPTOR 7 (TLR7) AGONISTS” (BRISTOL-MYERS SQUIBB COMPANY, priority 2020, published 2023)

What was measured:
[1] = tested on: CD69; assay: Induction of CD69 in human whole blood; format: cell-based; conditions: 17 hrs at 37° C., y-axis 100% set to 1 uM of resiquimod, average where assay was performed multiple times, read-out: hWB CD69 EC50
Protocol: The induction of Type I interferon (IFN) MX-1 genes and the B-cell activation marker CD69 are downstream events that occur upon activation of the TLR7 pathway. The following is a human whole blood assay that measures their induction in response to a TLR7 agonist.
Heparinized human whole blood was harvested from human subjects and treated with test TLR7 agonist compounds at 1 mM. The blood was diluted with RPMI 1640 media and Echo was used to predot 10 nL per well giving a final concentration of 1 uM (10 nL in 10 uL of blood). After mixing on a shaker for 30 sec, the plates were covered and placed in a 37° C. chamber for o/n=17 hrs. Fixing/lysis buffer was prepared (5×->1× in H2O, warm at 37° C.; Cat #BD 558049) and kept the perm buffer (on ice) for later use.
For surface markers staining (CD69): prepared surface Abs: 0.045 ul hCD14-FITC (ThermoFisher Cat #MHCD1401)+0.6 ul hCD19-ef450 (ThermoFisher Cat #48-0198-42)+1.5 ul hCD69-PE (cat #BD555531)+0.855 ul FACS buffer. Added 3 ul/well, spin 1000 rpm for 1 min and mixed on shaker for 30 sec, put on ice for 30 mins. Stop stimulation after 30 minutes with 70 uL of prewarmed 1× fix/lysis buffer and use Feliex mate to resuspend (15 times, change tips for each plate) and incubate at 37 C for 10 minutes.
Centrifuge at 2000 rpm for 5 minutes aspirate with HCS plate washer, mix on shaker for 30 sec and then wash with 70 uL in dPBS and pelleted 2×s (2000 rpm for 5 min) and 50 ul wash in FACS buffer pelleted 1×s (2000 rpm for 5 min). Mix on shaker for 30 sec. For Intracellular markers staining (MX-1): Add 50 ul of BD Perm buffer III and mix on shaker for 30 sec. Incubate on ice for 30 minutes (in the dark). Wash with 50 uL of FACS buffer 2× (spin @2300 rpm×5 min after perm) followed by mixing on shaker for 30 sec. Resuspended in 20 ul of FACS buffer containing MX1 antibody ( )(4812)-Alexa 647: Novus Biologicals #NBP2-43704AF647) 20 ul FACS bf+0.8 ul hIgG+0.04 ul MX-1. Spin 1000 rpm for 1 min, mix on shaker for 30 se and the samples were incubated at RT in the dark for 45 minutes followed by washing 2×FACS buffer (spin @2300 rpm×5 min after perm). Resuspend 20 ul (35 uL total per well) of FACS buffer and cover with foil and place in 4° C. to read the following day. Plates were read on iQuePlus. The results were loaded into toolset and […] curves are generated in curve master. The y-axis 100% is set to 1 uM of resiquimod.

[2] = biological target: T1, human TLR7 (Homo sapiens, UniProt Q9NYK1); assay: Human TLR7 agonist activity reporter assay (HEK-Blue TLR7 cells, SEAP reporter); format: cell-based; conditions: 18 h treatment, average where assay was performed multiple times, read-out: hTLR7 Agonism EC50
T1 construct: host or cells: HEK-Blue TLR7 cells (engineered human embryonic kidney cells)
T1 sequence (Q9NYK1 27-1049): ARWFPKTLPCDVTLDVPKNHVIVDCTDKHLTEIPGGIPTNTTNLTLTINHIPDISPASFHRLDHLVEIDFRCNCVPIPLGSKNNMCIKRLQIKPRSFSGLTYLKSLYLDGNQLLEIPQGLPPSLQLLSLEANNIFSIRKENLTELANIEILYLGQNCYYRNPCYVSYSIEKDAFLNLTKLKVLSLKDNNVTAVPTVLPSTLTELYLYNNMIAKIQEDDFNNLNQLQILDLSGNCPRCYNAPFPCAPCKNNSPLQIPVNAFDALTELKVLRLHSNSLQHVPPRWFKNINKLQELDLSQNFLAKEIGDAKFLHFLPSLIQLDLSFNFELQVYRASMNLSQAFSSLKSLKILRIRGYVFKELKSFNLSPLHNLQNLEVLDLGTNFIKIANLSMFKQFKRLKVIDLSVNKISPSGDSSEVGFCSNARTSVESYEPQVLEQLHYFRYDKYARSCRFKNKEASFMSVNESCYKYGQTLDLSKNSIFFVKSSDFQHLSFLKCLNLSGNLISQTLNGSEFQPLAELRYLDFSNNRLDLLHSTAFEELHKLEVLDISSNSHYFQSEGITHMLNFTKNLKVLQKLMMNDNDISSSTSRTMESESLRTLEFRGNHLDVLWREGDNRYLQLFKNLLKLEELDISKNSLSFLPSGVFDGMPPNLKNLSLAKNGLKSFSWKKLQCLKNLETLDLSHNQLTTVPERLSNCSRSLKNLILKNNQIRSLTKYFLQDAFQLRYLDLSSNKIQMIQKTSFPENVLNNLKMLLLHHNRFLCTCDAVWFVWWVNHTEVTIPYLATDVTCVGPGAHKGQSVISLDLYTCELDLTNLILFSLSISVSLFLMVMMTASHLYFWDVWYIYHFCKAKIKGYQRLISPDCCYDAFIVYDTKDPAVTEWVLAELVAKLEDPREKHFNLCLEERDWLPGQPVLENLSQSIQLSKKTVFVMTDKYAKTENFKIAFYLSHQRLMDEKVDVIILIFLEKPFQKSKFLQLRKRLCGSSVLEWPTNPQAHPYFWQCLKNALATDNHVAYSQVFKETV
Protocol: This procedure describes a method for assaying human TLR7 (hTLR7) agonist activity of the compounds disclosed in this specification.
HEK-Blue™ TLR7 cells were added to each well of a 384-well tissue-culture plate (15,000 cells per well) and incubated 16-18 h at 37° C., 5% CO2. Compounds (100 nl) were dispensed into wells containing the HEK-Blue™ TLR cells and the treated cells were incubated at 37° C., 5% CO2. After 18 h treatment ten microliters of freshly-prepared Quanti-Blue™ reagent (Invivogen) was added to each well, incubated for 30 min (37° C., 5% CO2) and SEAP levels measured using an Envision plate reader (OD=620 nm). The half maximal effective concentration values (EC50; compound concentration which induced a response halfway between the assay baseline and maximum) were calculated.

Row | Structure (SMILES) | EC50 [1] | EC50 [2]
1 | CCC[C@@H](CCO)Nc1nc(N)nc2c(C)nn(Cc3ccc(CNC4CCOCC4)cc3OC)c12 [Compound 127, (3S)-3-({5-amino-1-[(2-methoxy-4-{[(oxan-4-yl)amino]methyl}phenyl)-methyl]-3-methyl-1H-pyrazolo[4,3-d]pyrimidin-7-yl}amino)hexan-1-ol] | 2.7 nM | 21.8 nM
2 | CCC[C@@H](CCO)Nc1nc(N)nc2c(C)nn(Cc3ccc(CN4CCN(CCO)CC4)cc3OC)c12 [Compound 128, (3S)-3-({5-amino-1-[(4-{[4-(2-hydroxyethyl)piperazin-1-yl]methyl}-2-methoxy-phenyl)methyl]-3-methyl-1H-pyrazolo[4,3-d]pyrimidin-7-yl}amino)hexan-1-ol] | 1.2 nM | 7.2 nM
3 | CCC[C@@H](CCO)Nc1nc(N)nc2c(C)nn(Cc3ccc(CN4CCN(C)CC4)cc3OC)c12 [Compound 129, (3S)-3-{[5-amino-1-({2-methoxy-4-[(4-methyl-piperazin-1-yl)methyl]-phenyl}methyl)-3-methyl-1H-pyrazolo[4,3-d]pyrimidin-7-yl]amino}hexan-1-ol] | 3.5 nM | 5.93 nM
4 | CCC[C@@H](CCO)Nc1nc(N)nc2c(C)nn(Cc3ccc(CN[C@@H]4CCCOC4)cc3OC)c12 [Compound 130, (3S)-3-[(5-amino-1-{[2-methoxy-4-({[(3R)-oxan-3-yl]amino}methyl)phenyl]-methyl}-3-methyl-1H-pyrazolo[4,3-d]pyrimidin-7-yl)amino]hexan-1-ol] | 7.5 nM | 93.8 nM
5 | CCCCNc1nc(N)nc2c(C)nn(Cc3ncc(CN4CCN(CCO)CC4)cc3OC)c12 [Compound 131, 2-{4-[(6-{[5-amino-7-(butyl-amino)-3-methyl-1H-pyrazolo[4,3-d]pyrimidin-1-yl]methyl}-5-methoxy-pyridin-3-yl)methyl]piperazin-1-yl}ethan-1-ol] | 41.4 nM | 224 nM
6 | CCC[C@@H](CCO)Nc1nc(N)nc2c(F)nn(Cc3ccc(CN[C@@H]4COC[C@H]4O)cc3OC)c12 [Compound 132, (3S,4R)-4-[({4-[(5-amino-3-fluoro-7-{[(3S)-1-hydroxy-hexan-3-yl]amino}-1H-pyrazolo[4,3-d]pyrimidin-1-yl)-methyl]-3-methoxyphenyl}-methyl)amino]oxolan-3-ol] | 9.3 nM | 40.4 nM
7 | CCC[C@@H](CCO)Nc1nc(N)nc2c(F)nn(Cc3ccc(CN[C@H]4COC[C@@H]4O)cc3OC)c12 [Compound 133, (3R,4S)-4-[({4-[(5-amino-3-fluoro-7-{[(3S)-1-hydroxy-hexan-3-yl]amino}-1H-pyrazolo[4,3-d]pyrimidin-1-yl)-methyl]-3-methoxyphenyl}-methyl)amino]oxolan-3-ol] | 12.6 nM | 47.9 nM
